Where two headings read alike, the source gives them in different places.
System: PopE F8 M-833 resistant clone (PfSTART1 N330K)
Assay: Growth inhibition assay (72 h, LDH activity)
Assay type: cell-based, Plasmodium falciparum
Experimental: The drug was then removed, and parasites were allowed to recover. Another cycle of drug treatment (3 μM M-833) was then resumed. The resistant lines were cloned out by limiting dilution (diluting the culture into a 96-well plate to achieve an average of ~0.3 parasites per well), prior to growth inhibition assays and genomic DNA (gDNA) extraction (DNeasy Blood and Tissue kit (Qiagen)[18].
Parasite growth assays with inhibitory compounds were performed as per[11] and are fully described in the Supplementary Information.
Molecular biology and transfection of P. falciparum: CRISPR method.
The full 5’ homology region of pfstart1 (either WT, N309K or N330K) was amplified from pPfSTART1-HA-2A-Neo-glmS with the same 5’ BglII primer and a new 3’ primer that replaced with PstI with SpeI and introduced a stop codon. The PCR product was then digested with BglII and SpeI and inserted into similarly digested p1.2 parasite vector2. The p1.2 vector had previously been inserted with a homology region amplified from the 3’ end of the pfstart1 gene (3’HB) to form a second homology block for double recombination. The primers used to amplify 3’HB are listed primers listed in […]
60 μg of p1.2-PfSTART1(WT/N309K/N330K) plasmid was linearised with KasI, precipitated in 3 M sodium acetate and ethanol (70% final concentration) overnight at -20°C. The DNA pellet was washed in cold 70% ethanol and resuspended in cytomix 3.
50 μ M of crRNA ( Table S 2) and 50 μM of tracRNA (Integrated DNA Technologies) were allowed to form a duplex (5 min at 95°C), and Cas9 enzyme (Integrated DNA Technologies) was added, and incubated for 20 min at room temperature 4. This crRNA -tracRNA -Cas9 mix was added to each DNA preparation and transfected to 3D7 ring parasites using the Bio -Rad Gene Pulser at 310 V and 950 μF.
Parasites containing the transfected DNA were selected using 2.5 nM WR99210 (Jacobus). Parasites lines were cloned using limiting dilution. Correct integration was tested by PCR (using primer START_5’UTR.F and START_Int.R1 , Table S 2), and sequencing was done using the primers START_3F and START_Int.R2 (Table S 2).
Growth inhibition assays. Synchronised ring-stage parasites (0.3-0.6% parasitemia, 2% haematocrit) were grown for 72 h in a serial-dilution of the compound under […]
and compound 4. Note that M-833 was first purchased from MolPort (MolPort -002-267-916) then made in-house at WEHI: the differences observed in EC50s across experiments are attributed to the different batches of M -833. For some experiments, 0, 0.25 or 2.5 mM of glucosamine (GlcN) was also added. Experiments were set up in technical duplicates or triplicates. Following a freeze -thaw cycle, lactate dehydrogenase (LDH) activity was assessed as an indicator of parasite growt h 5. 30 μL of parasite culture was incubated for 30 min in the dark with 75 μL Malstat mixture (0.1 M Tris pH 9.0, 20 g/L lactic acid, pH 7.5, 0.2% Triton-X100, 0.5 g/L acetylpyridine adenine dinucleotide (APAD, Sigma), 200 μg/mL nitroblue tetrazolium (NBT; Sigma), 1 μg/mL phenozine ethosulfate (PES; Sigma)). Absorbance was then measured at 650 nm, transformed using the formula below, plotted against the logarithm of the concentrations, and a non-linear regression (log(inhibitor) vs. response, variable slope) was calculated using GraphPad Prism to assess the half-inhibitory […]
Growth inhibition % = (1 − average(sample)− average(uRBC)) ∗ 100 […]
The DMSO samples were also used to assess growth of parasite in the presence of 0.25 and 2.5 mM GlcN (normalised by DMSO in 0 mM GlcN).
Egress, invasion & recovery assay. To measure egress, invasion and follow up recovery in the presence of different compounds, we adapted the method developed in6, using Hyp1-Nluc parasites7. These parasites episomally express the exported PEXEL protein Hyp1 (PF3D7_0113300) tagged with a NanoLuc luciferase (NLuc) and were selected with 2.5 nM WR99210 (Jacobus). Highly synchronised schizonts were […]

For `Cc1cc(Cl)c(S(=O)(=O)N2CCCC2)cc1OCC(=O)NC1CCCCC1` [M-833], the “Normalised to DMSO” value (M-833 0.0390625 uM, Pop E-F8 replicate 1) was 109.671, the “Normalised to DMSO” value (M-833 0.0390625 uM, PopE-F8 replicate 3) was 109.081 and the “Normalised to DMSO” value (M-833 0.078125 uM, Pop E-F8 replicate 1) was 111.583. For the same molecule, the “Normalised to DMSO” value (M-833 0.078125 uM, PopE-F8 replicate 3) was 106.576, the “Normalised to DMSO” value (M-833 0.15625 uM, Pop E-F8 replicate 1) was 105.619 and the “Normalised to DMSO” value (M-833 0.15625 uM, PopE-F8 replicate 3) was 106.576. The “Normalised to DMSO” value (M-833 0.3125 uM, Pop E-F8 replicate 1) was 109.939, the “Normalised to DMSO” value (M-833 0.3125 uM, PopE-F8 replicate 3) was 106.263 and the “Normalised to DMSO” value (M-833 0.625 uM, Pop E-F8 replicate 1) was 106.384. For the same molecule, the “Normalised to DMSO” value (M-833 0.625 uM, PopE-F8 replicate 3) was 108.612, the “Normalised to DMSO” value (M-833 1.25 uM, Pop E-F8 replicate 1) was 102.255 and the “Normalised to DMSO” value (M-833 1.25 uM, PopE-F8 replicate 3) was 105.48. The “Normalised to DMSO” value (M-833 2.5 uM, Pop E-F8 replicate 1) was 99.4266, the “Normalised to DMSO” value (M-833 2.5 uM, PopE-F8 replicate 3) was 94.0501 and the “Normalised to DMSO” value (M-833 5 uM, Pop E-F8 replicate 1) was 83.5245. The “Normalised to DMSO” value (M-833 5 uM, PopE-F8 replicate 3) was 74.6347, the “Normalised to DMSO” value (M-833 10 uM, Pop E-F8 replicate 1) was 58.7156 and the “Normalised to DMSO” value (M-833 10 uM, PopE-F8 replicate 3) was 75.7307. For the same molecule, the inhibition at 0.0390625 µM (Plasmodium falciparum, M-833 0.0390625 uM, Pop E-F8 replicate 1, read-out: % Inhibition) was -9.67%, the inhibition at 0.0390625 µM (Plasmodium falciparum, M-833 0.0390625 uM, PopE-F8 replicate 3, read-out: % Inhibition) was -9.08% and the inhibition at 0.078125 µM (Plasmodium falciparum, M-833 0.078125 uM, Pop E-F8 replicate 1, read-out: % Inhibition) was -11.6%. For the same molecule, the inhibition at 0.078125 µM (Plasmodium falciparum, M-833 0.078125 uM, PopE-F8 replicate 3, read-out: % Inhibition) was -6.58%, the inhibition at 0.15625 µM (Plasmodium falciparum, M-833 0.15625 uM, Pop E-F8 replicate 1, read-out: % Inhibition) was -5.62% and the inhibition at 0.15625 µM (Plasmodium falciparum, M-833 0.15625 uM, PopE-F8 replicate 3, read-out: % Inhibition) was -6.58%. The inhibition at 0.3125 µM (Plasmodium falciparum, M-833 0.3125 uM, Pop E-F8 replicate 1, read-out: % Inhibition) was -9.94%, the inhibition at 0.3125 µM (Plasmodium falciparum, M-833 0.3125 uM, PopE-F8 replicate 3, read-out: % Inhibition) was -6.26% and the inhibition at 0.625 µM (Plasmodium falciparum, M-833 0.625 uM, Pop E-F8 replicate 1, read-out: % Inhibition) was -6.38%. For the same molecule, the inhibition at 0.625 µM (Plasmodium falciparum, M-833 0.625 uM, PopE-F8 replicate 3, read-out: % Inhibition) was -8.61%, the inhibition at 1.25 µM (Plasmodium falciparum, M-833 1.25 uM, Pop E-F8 replicate 1, read-out: % Inhibition) was -2.26% and the inhibition at 1.25 µM (Plasmodium falciparum, M-833 1.25 uM, PopE-F8 replicate 3, read-out: % Inhibition) was -5.48%. For the same molecule, the inhibition at 2.5 µM (Plasmodium falciparum, M-833 2.5 uM, Pop E-F8 replicate 1, read-out: % Inhibition) was 0.573%, the inhibition at 2.5 µM (Plasmodium falciparum, M-833 2.5 uM, PopE-F8 replicate 3, read-out: % Inhibition) was 5.95% and the inhibition at 5 µM (Plasmodium falciparum, M-833 5 uM, Pop E-F8 replicate 1, read-out: % Inhibition) was 16.5%. The inhibition at 5 µM (Plasmodium falciparum, M-833 5 uM, PopE-F8 replicate 3, read-out: % Inhibition) was 25.4%, the inhibition at 10 µM (Plasmodium falciparum, M-833 10 uM, Pop E-F8 replicate 1, read-out: % Inhibition) was 41.3% and the inhibition at 10 µM (Plasmodium falciparum, M-833 10 uM, PopE-F8 replicate 3, read-out: % Inhibition) was 24.3%. For the same molecule, the inhibition at 0.0390625 µM (Plasmodium falciparum, Pop E-F8 replicate 1, M-833 0.0390625 uM) was -1.3%, the inhibition at 0.078125 µM (Plasmodium falciparum, Pop E-F8 replicate 1, M-833 0.078125 uM) was -1.67% and the inhibition at 0.15625 µM (Plasmodium falciparum, Pop E-F8 replicate 1, M-833 0.15625 uM) was 1.93%. It also gave an inhibition at 0.3125 µM (Plasmodium falciparum, Pop E-F8 replicate 1, M-833 0.3125 uM) of 3.08%, an inhibition at 0.625 µM (Plasmodium falciparum, Pop E-F8 replicate 1, M-833 0.625 uM) of 3.36% and an inhibition at 1.25 µM (Plasmodium falciparum, Pop E-F8 replicate 1, M-833 1.25 uM) of 4.32%. The inhibition at 2.5 µM (Plasmodium falciparum, Pop E-F8 replicate 1, M-833 2.5 uM) was 11.8%, the inhibition at 5 µM (Plasmodium falciparum, Pop E-F8 replicate 1, M-833 5 uM) was 18.8% and the inhibition at 10 µM (Plasmodium falciparum, Pop E-F8 replicate 1, M-833 10 uM) was 41%. For the same molecule, the EC50 (Plasmodium falciparum, read-out: EC50 (95% confidence interval)) was > 10 µM, the “Normalised to DMSO” value (Pop E-F8 replicate 1, M-833 0.0390625 uM) was 101.305 and the “Normalised to DMSO” value (Pop E-F8 replicate 1, M-833 0.078125 uM) was 101.672. The “Normalised to DMSO” value (Pop E-F8 replicate 1, M-833 0.15625 uM) was 98.0669, the “Normalised to DMSO” value (Pop E-F8 replicate 1, M-833 0.3125 uM) was 96.9165 and the “Normalised to DMSO” value (Pop E-F8 replicate 1, M-833 0.625 uM) was 96.6437. The “Normalised to DMSO” value (Pop E-F8 replicate 1, M-833 1.25 uM) was 95.6831, the “Normalised to DMSO” value (Pop E-F8 replicate 1, M-833 2.5 uM) was 88.1997 and the “Normalised to DMSO” value (Pop E-F8 replicate 1, M-833 5 uM) was 81.2026. For the same molecule, the “Normalised to DMSO” value (Pop E-F8 replicate 1, M-833 10 uM) was 58.9777.

Reference: article PMC11189555, “Aryl amino acetamides prevent Plasmodium falciparum ring development via targeting the lipid-transfer protein PfSTART1” (Nature Communications, 2024)
